The values that follow are results of earlier work, collected in US20050182026A1, “Use of phospholipids in peritoneal dialysis” (priority 2002, published 2005).

In series [1] the test system is respiratory distress syndrome. Particulars: various physical forms, used for two decades in newborns.

Molecules are shown by their SMILES.

As to `CCCCCCCCCCCCCCCC(=O)OC[C@H](COP(=O)([O-])OCC[N+](C)(C)C)OC(=O)CCCCCCCCCCCCCCC` [DPPC, dipalmitoylphosphatidylcholine], the solubility in water result is on record as “highly insoluble in water”. In addition, the critical micelle concentration (in water) is on record as 5×10^−10 Molar. For the same molecule, the “safety in clinical use” value in series [1] was “complete safety”.
